A compilation of properties of binary mixtures (doi:10.1021/acs.iecr.1c02970)

Assay: xn = mol fraction of the nth substance listed
Details: 100 kPa, x2 = 0

O + CC[n+]1ccn(C)c1.CS(=O)(=O)[O-]
Details	electrical conductivity [S/m]	speed of sound [m/s]	viscosity [mPa·s]
293.15 K	–	–	1.002
303.15 K	0.0001	–	0.797
313.15 K	0.0002	1529.2	0.653
318.15 K	–	1536.7	–
343.15 K	0.0018	1555.1	0.4039
353.15 K	0.0023	–	0.3544
